According to US20040171489A1, “Synergistic active compound combinations for controlling harmful plants” (priority 1998, published 2004):

How the values were obtained:
winter barley = experiment: Example 9 field trials, application 1-3 leaf stage broad-leaved weeds: crop damage; format: in vivo, Hordeum vulgare; details: 100 g of ai/ha; 120 to 160 days after application
Procedure: (§1) The herbicidal efficacy of the active compounds or active compound mixtures was scored visually using the treated plots in comparison to untreated control plots. The damage and development of all above-ground parts of the plants were recorded. Scoring was carried out using a percentage scale (100% effect=all plants killed; 50% effect=50% of the plants and the green parts of the plants killed; 0% effect=no noticeable effect=like control plot. The scores of in each case 4 plots were averaged.
(§2) If the observed activity values already exceed the formal sum of the values for the trials with the individual applications, they also exceed the expected value according to Colby which is calculated using the following formula and which is likewise considered to be an indication of synergism (cf. S. R. Colby; in Weeds 15 (1967) p. 20 to 22):
(§3) Crop plants were grown outdoors on plots under natural outdoor conditions, and seeds or rhizome pieces of typical harmful plants were laid out or the natural weed growth was utilized. Treatment with the compositions according to the invention was carried out after the harmful plants had emerged and the crop plants were, generally, at the 2- to 4-leaf stage; in some cases (as stated), application of individual active compounds or active compound combinations was carried out pre-emergence (cf. Section 1) or post-emergence (cf. Section 2) or as a sequential treatment partly pre-emergence and/or post-emergence. After the application, for example 2, 4, 6 and 8 weeks after the application, the effect of the preparations was scored visually by comparison with untreated controls (cf. scoring in Section 1). In the field trial as well, the compositions according to the invention have synergistic herbicidal activity against a broad spectrum of economically important weed grasses and broad-leaved weeds. […] Moreover, the effects in essential phases of the scoring period were above the expected values according to Colby, also indicating synergism. […]

Oryza sativa (rice) [1] = experiment: Example 21 field trial, 4-leaf stage: crop damage; format: in vivo; details: 42 days after application
Procedure: as §1, §2, §3

Elusine indica = experiment: Example 18 field trial, 3-leaf stage: herbicidal effect; format: in vivo; details: 100 g of ai/ha; 31 days after application
Procedure: as §1, §2, §3

winter wheat [2] = experiment: Example 9 field trials, application 1-3 leaf stage broad-leaved weeds: crop damage; format: in vivo, Triticum aestivum; details: 100 g of ai/ha; 120 to 160 days after application
Procedure: as §1, §2, §3

winter wheat [3] = experiment: Example 11 field trial, 2- to 4-leaf stage: crop damage; format: in vivo, Triticum aestivum; details: 28 days after application
Procedure: as §1, §2
(§4) Crop plants were grown outdoors on plots under natural outdoor conditions, and seeds or rhizome pieces of typical harmful plants were laid out or the natural weed growth was utilized. Treatment with the compositions according to the invention was carried out after the harmful plants had emerged and the crop plants were, generally, at the 2- to 4-leaf stage; in some cases (as stated), application of individual active compounds or active compound combinations was carried out pre-emergence (cf. Section 1) or post-emergence (cf. Section 2) or as a sequential treatment partly pre-emergence and/or post-emergence. After the application, for example 2, 4, 6 and 8 weeks after the application, the effect of the preparations was scored visually by comparison with untreated controls (cf. scoring in Section 1). In the field trial as well, the compositions according to the invention have synergistic herbicidal activity against a broad spectrum of economically important weed grasses and broad-leaved weeds. […] Moreover, the effects in essential phases of the scoring period were above the expected values according to Colby, also indicating synergism. In contrast, the crop plants were, as a consequence of the treatments with the herbicidal compositions, damaged only to a small degree, if at all.

Lamium purpurea = experiment: Example 12 field trial, 2- to 4-leaf stage: herbicidal effect; format: in vivo; details: 42 days after application
Procedure: as §1, §2, §4

Oryza sativa (rice) [4] = experiment: Example 20 field trial, 3-leaf stage: crop damage; format: in vivo; details: 31 days after application
Procedure: as §1, §2, §4

winter wheat [5] = experiment: Example 16 field trial, post-emergence, 2- to 3-leaf stage: crop damage; format: in vivo, Triticum aestivum; details: 50 g of ai/ha; 69 days after application
Procedure: as §1, §2
(§5) Crop plants were grown outdoors on plots under natural outdoor conditions, and seeds or rhizome pieces of typical harmful plants were laid out or the natural weed growth was utilized. […] After the application, for example 2, 4, 6 and 8 weeks after the application, the effect of the preparations was scored visually by comparison with untreated controls (cf. scoring in Section 1). […]

[6] = test system: corn which is glufosinate-ammonium-resistant; experiment: Example 18 field trial, 3-leaf stage: crop damage; format: in vivo, Corn (LL); details: 100 g of ai/ha; 31 days after application
Procedure: The damage and development of all above-ground parts of the plants were recorded.
Crop plants were grown outdoors on plots under natural outdoor conditions, and seeds or rhizome pieces of typical harmful plants were laid out or the natural weed growth was utilized.

Ipomoea hederacea = experiment: Example 17 field trial, pre-emergence: herbicidal effect; format: in vivo; details: 16 days after application
Excerpt: (§6) Seeds or rhizome pieces of monocotyledonous and dicotyledonous weed plants are placed in sandy loam soil in pots and covered with soil. The compositions, formulated in the form of concentrated aqueous solutions, wettable powders or emulsion concentrates, are then applied to the surface of the soil cover as aqueous solution, suspension or emulsion at an application rate of 600 to 800 l of water/ha (converted), in various dosages. After the treatment, the pots are placed in a greenhouse and kept under good growth conditions for the weeds. After the test plants have emerged, the damage to the plants or the negative effects on the emergence is scored visually after a test period of 3 to 4 weeks by comparison with untreated controls. As shown by the test results, the compositions according to the invention have good herbicidal pre-emergence activity against a broad spectrum of weed grasses and broad-leaved weeds.
as §1, §2, §4

Setaria faberi = experiment: as above; format: in vivo; details: 16 days after application
Excerpt: as §6, §1, §2, §4

Zea mays (corn) [7] = experiment: Example 17 field trial, pre-emergence: crop damage; format: in vivo; details: 16 days after application
Excerpt: as §6
The herbicidal efficacy of the active compounds or active compound mixtures was scored visually using the treated plots in comparison to untreated control plots. The damage and development of all above-ground parts of the plants were recorded. […]
as §2, §5

Monochoria vaginalis = experiment: Example 22 field trial, 2-leaf stage: herbicidal effect; format: in vivo; details: 14 days after application
Procedure: as §1, §2, §4

Oryza sativa (rice) [8] = experiment: Example 22 field trial, 2-leaf stage: crop damage; format: in vivo; details: 14 days after application
Procedure: as §1, §2, §4

winter wheat [9] = experiment: Example 12 field trial, 2- to 4-leaf stage: crop damage; format: in vivo, Triticum aestivum; details: 42 days after application
Procedure: as §1, §2, §4

Capsella bursa-pastoris = experiment: Example 11 field trial, 2- to 4-leaf stage: herbicidal effect; format: in vivo; details: 28 days after application
Procedure: as §1, §2, §4

Zea mays (corn) [10] = experiment: Example 19 field trial, 4 to 5-leaf stage: crop damage; format: in vivo; details: 100 g of ai/ha; 31 days after application
Procedure: as §1, §2, §5

Galium aparine = experiment: Example 10 pre-emergence application, fall: herbicidal effect; format: in vivo; details: 169 days after application
Excerpt: as §6, §1, §2, §4

summer wheat = experiment: Example 13 field trial, 2- to 4-leaf stage: crop damage; format: in vivo, Triticum aestivum; details: 17 days after application
Procedure: as §1, §2, §4

winter wheat [11] = experiment: Example 15 field trial, 2- to 4-leaf stage: crop damage; format: in vivo, Triticum aestivum; details: 28 days after application
Procedure: as §1, §2, §4

Euphorbia heterophylla = experiment: Example 20 field trial, 3-leaf stage: herbicidal effect; format: in vivo; details: 31 days after application
Procedure: as §1, §2, §4

Sorghum verticilliflorum = experiment: Example 13 field trial, 2- to 4-leaf stage: herbicidal effect; format: in vivo; details: 17 days after application
Procedure: as §1, §2, §4

CC(C)(F)c1nc(N)nc(NC(CCc2ccccc2)C2CCC2)n1 (centres unmarked) [(A1), 4-amino-6-(1-fluoro-1-methylethyl)-2-(3-phenyl-1-cyclobutylpropylamino)-1,3,5-triazine]
damage, HORVW (winter barley): 0% | damage, ORYSA (Oryza sativa (rice) [1]; 25 g of ai/ha): 0% | damage, ORYSA (Oryza sativa (rice) [1]; 50 g of ai/ha): 0% | damage, ORYSA (Oryza sativa (rice) [1]; 100 g of ai/ha): 0% | herbicidal effect, ELEIN (Elusine indica): 0% | damage, TRZAW (winter wheat [2]): 0% | damage, TRZAW (winter wheat [3]; 25 g of ai/ha): 0% | damage, TRZAW (winter wheat [3]; 50 g of ai/ha): 1% | damage, TRZAW (winter wheat [3]; 75 g of ai/ha): 1% | damage, TRZAW (winter wheat [3]; 100 g of ai/ha): 2% | herbicidal effect, LAMPU (Lamium purpurea; 12.5 g of ai/ha): 25% | herbicidal effect, LAMPU (Lamium purpurea; 25 g of ai/ha): 65% | herbicidal effect, LAMPU (Lamium purpurea; 50 g of ai/ha): 70% | damage, ORYSA (Oryza sativa (rice) [4]; 25 g of ai/ha): 0% | damage, ORYSA (Oryza sativa (rice) [4]; 50 g of ai/ha): 0% | damage, ORYSA (Oryza sativa (rice) [4]; 100 g of ai/ha): 0% | herbicidal effect (%), TRZAW (crop) (winter wheat [5]): 0% | damage, Corn (LL) [6]: 0% | herbicidal effect, IPOHE (Ipomoea hederacea; 50 g of ai/ha): 85% | herbicidal effect, IPOHE (Ipomoea hederacea; 100 g of ai/ha): 93% | herbicidal effect, SETFA (Setaria faberi; 50 g of ai/ha): 85% | herbicidal effect, SETFA (Setaria faberi; 100 g of ai/ha): 94% | damage, ZEAMA (Zea mays (corn) [7]; 50 g of ai/ha): 0% | damage, ZEAMA (Zea mays (corn) [7]; 100 g of ai/ha): 0% | herbicidal effect, MOOVA (Monochoria vaginalis; 25 g of ai/ha): 3% | herbicidal effect, MOOVA (Monochoria vaginalis; 50 g of ai/ha): 90% | herbicidal effect, MOOVA (Monochoria vaginalis; 100 g of ai/ha): 95% | damage, ORYSA (Oryza sativa (rice) [8]; 25 g of ai/ha): 0% | damage, ORYSA (Oryza sativa (rice) [8]; 50 g of ai/ha): 10% | damage, ORYSA (Oryza sativa (rice) [8]; 100 g of ai/ha): 13% | damage, TRZAW (winter wheat [9]; 12.5 g of ai/ha): 0% | damage, TRZAW (winter wheat [9]; 25 g of ai/ha): 0% | damage, TRZAW (winter wheat [9]; 50 g of ai/ha): 0% | herbicidal effect, CAPPBP (Capsella bursa-pastoris; 25 g of ai/ha): 40% | herbicidal effect, CAPPBP (Capsella bursa-pastoris; 50 g of ai/ha): 68% | herbicidal effect, CAPPBP (Capsella bursa-pastoris; 75 g of ai/ha): 73% | herbicidal effect, CAPPBP (Capsella bursa-pastoris; 100 g of ai/ha): 79% | damage, ZEAMA (Zea mays (corn) [10]): 0% | herbicidal effect, GALAP (Galium aparine; 50 g of ai/ha): 45% | herbicidal effect, GALAP (Galium aparine; 100 g of ai/ha): 45% | damage, TRZAS (summer wheat; 62.5 g of ai/ha): 5% | damage, TRZAS (summer wheat; 125 g of ai/ha): 13% | damage, TRZAW (winter wheat [11]; 25 g of ai/ha): 0% | damage, TRZAW (winter wheat [11]; 50 g of ai/ha): 2% | damage, TRZAW (winter wheat [11]; 100 g of ai/ha): 2% | herbicidal effect, EPHHL (Euphorbia heterophylla; 25 g of ai/ha): 15% | herbicidal effect, EPHHL (Euphorbia heterophylla; 50 g of ai/ha): 50% | herbicidal effect, EPHHL (Euphorbia heterophylla; 100 g of ai/ha): 60% | herbicidal effect, SORVE (Sorghum verticilliflorum; 62.5 g of ai/ha): 35% | herbicidal effect, SORVE (Sorghum verticilliflorum; 125 g of ai/ha): 50%
